Measurements taken from patent US5955423A (priority 1995, dated 1999).

Experiments:
[1] = test system: KB (human nasopharyngeal carcinoma) cell line; experiment: Cytotoxicity against KB cell line; format: cell-based
[2] = test system: LoVo (human colon-carcinoma) cell line; experiment: Cytotoxicity against LoVo cell line; format: cell-based
[3] = test system: SKOV3 (human ovarian carcinoma) cell line; experiment: Cytotoxicity against SKOV3 cell line; settings: Table 2

Structure (SMILES) | KB IC50 ([1]; Table 1) [ng/mL] | LoVo IC50 ([2]; Table 1) [ng/mL] | KB IC50 ([1]; Table 2) [ng/mL] | SKOV3 IC50 [3] [ng/mL] | LoVo IC50 ([2]; Table 2) [ng/mL]
COC(=O)[C@H](C)CNC(=O)[C@@H](Cc1ccc(OC)c(Cl)c1)NC(=O)/C=C/C[C@@H]1O[C@@H](c2ccccc2)[C@H](O)[C@H]1C [Cryptophycin 6] | ≥ 100 | ≥ 100 |  |  | 
COc1ccc(CC(NC(=O)C=CCC2OC(c3ccccc3)C(O)C2C)C(=O)O)cc1Cl (stereo not shown) [Cryptophycin 7] | ≥ 750 | ≥ 480 |  |  | 
COc1ccc(CC2NC(=O)C=CCC(C(C)C(O)C(OC)c3ccccc3)OC(=O)C(CC(C)C)OC(=O)C(C)CNC2=O)cc1Cl (stereo not shown) [Cryptophycin 9] | 15 |  |  |  | 
COc1ccc(C[C@@H](NC(=O)/C=C/C[C@H](O)[C@H](C)[C@@H](O)[C@@H](OC)c2ccccc2)C(=O)NC[C@@H](C)C(=O)O)cc1Cl [Cryptophycin 10] | ≥ 100 | ≥ 100 |  |  | 
COc1ccc(C[C@@H](NC(=O)/C=C/C[C@@H]2O[C@@H](c3ccccc3)[C@H](O)[C@H]2C)C(=O)NC[C@@H](C)C(=O)O)cc1Cl [Cryptophycin 12] | ≥ 100 |  | 18 |  | 
COc1ccc(CC(NC(=O)C=CCC(O)C(C)C=Cc2ccccc2)C(=O)NCC(C)C(=O)O)cc1Cl (stereo not shown) [Cryptophycin 14] | 1.8 |  |  |  | 
COc1ccc(C[C@H]2NC(=O)/C=C/C[C@@H]([C@H](C)[C@@H](O)[C@@H](O)c3ccccc3)OC(=O)[C@H](CC(C)C)OC(=O)[C@H](C)CNC2=O)cc1Cl [Cryptophycin 15] |  |  |  | 12 | 
CC(C)CC1OC(=O)C(C)CNC(=O)C(Cc2ccc(O)c(Cl)c2)NC(=O)C=CCC(C(C)C=Cc2ccccc2)OC1=O (stereo not shown) [Cryptophycin 17] |  |  | 4.7 | 11 | 5.9
CCC(C)C1OC(=O)C(C)CNC(=O)C(Cc2ccc(OC)c(Cl)c2)NC(=O)C=CCC(C(C)C=Cc2ccccc2)OC1=O (stereo not shown) [Cryptophycin 18] |  |  |  | 23 | 4.5
COc1ccc(CC2NC(=O)C=CCC(C(C)C=Cc3ccccc3)OC(=O)C(C(C)C)OC(=O)C(C)CNC2=O)cc1Cl (stereo not shown) [Cryptophycin 19] |  |  | 9.8 | 41 | 
COc1ccc(C[C@H]2NC(=O)/C=C/C[C@@H]([C@H](C)[C@H]3O[C@@H]3c3ccccc3)OC(=O)[C@H](CC(C)C)OC(=O)CCNC2=O)cc1 [Cryptophycin 24] |  |  | 0.12 | 0.3 | 0.095
COc1ccc(C[C@H]2NC(=O)CC(C[C@H](O)[C@H](C)/C=C/c3ccccc3)OC(=O)[C@H](CC(C)C)OC(=O)[C@H](C)CNC2=O)cc1Cl (stereo partly shown) [Cryptophycin 26] |  |  | 19 | 95 | 9.8
COc1ccc(C[C@H]2NC(=O)/C=C/C[C@@H](C/C=C/c3ccccc3)OC(=O)[C@H](CC(C)C)OC(=O)[C@H](C)CNC2=O)cc1Cl [Cryptophycin 28] |  |  | 1.5 | 6.1 | 0.75
COc1ccc(C[C@H]2NC(=O)/C=C/C[C@@H]([C@H](C)/C=C/c3ccccc3)OC(=O)[C@H](CC(C)C)OC(=O)CCNC2=O)cc1Cl [Cryptophycin 29] |  |  |  | 3.4 | 0.49
COc1ccc(C[C@H]2NC(=O)C[C@H](O)C[C@@H]([C@H](C)/C=C/c3ccccc3)OC(=O)[C@H](CC(C)C)OC(=O)[C@H](C)CNC2=O)cc1Cl [Cryptophycin 30] |  |  | 11 |  | 
COc1ccc(CC2NC(=O)C=CCC(CC3OC3c3ccccc3)OC(=O)C(CC(C)C)OC(=O)C(C)CNC2=O)cc1Cl (stereo not shown) [Cryptophycin 40] |  |  | 9.0 |  | 1.0
CCCC1OC(=O)C(C)CNC(=O)C(Cc2ccc(OC)c(Cl)c2)NC(=O)C=CCC(C(C)C=Cc2ccccc2)OC1=O (stereo not shown) [Cryptophycin 49] |  |  |  | 1.1 | 
CCC[C@@H]1OC(=O)[C@H](C)CNC(=O)[C@@H](Cc2ccc(OC)c(Cl)c2)NC(=O)/C=C/C[C@@H]([C@H](C)[C@H]2O[C@@H]2c2ccccc2)OC1=O [Cryptophycin 50] |  |  |  | 0.2 | 
